According to ChEMBL document CHEMBL3217740, “Novel selective inhibitors of neutral endopeptidase: discovery by screening and hit-to-lead optimisation” (Medchemcomm, 2012):
Converted amounts (≈) assume the structure as drawn.

What was measured:
Neprilysin = Neprilysin (Homo sapiens, UniProt P08473); test: Inhibition of human NEP using N-Dansyl-D-Ala-Gly-p-nitro-Phe-Gly as substrate preincubated for 10 mins followed by substrate addition measured after 2 hrs by spectrophotometric analysis
[1] = Half life in rat plasma at 10 uM by LC-MS/MS; assay type: ADME, cell-free
[2] = biological target: Angiotensin-converting enzyme (Homo sapiens, UniProt P12821); test: Inhibition of human ACE-1 using Abz-Gly-p-nitro-Phe-Pro-OH as substrate preincubated for 10 mins followed by substrate addition measured after 17 hrs by spectrophotometric analysis
Angiotensin-converting enzyme, sequence (P12821 whole entry): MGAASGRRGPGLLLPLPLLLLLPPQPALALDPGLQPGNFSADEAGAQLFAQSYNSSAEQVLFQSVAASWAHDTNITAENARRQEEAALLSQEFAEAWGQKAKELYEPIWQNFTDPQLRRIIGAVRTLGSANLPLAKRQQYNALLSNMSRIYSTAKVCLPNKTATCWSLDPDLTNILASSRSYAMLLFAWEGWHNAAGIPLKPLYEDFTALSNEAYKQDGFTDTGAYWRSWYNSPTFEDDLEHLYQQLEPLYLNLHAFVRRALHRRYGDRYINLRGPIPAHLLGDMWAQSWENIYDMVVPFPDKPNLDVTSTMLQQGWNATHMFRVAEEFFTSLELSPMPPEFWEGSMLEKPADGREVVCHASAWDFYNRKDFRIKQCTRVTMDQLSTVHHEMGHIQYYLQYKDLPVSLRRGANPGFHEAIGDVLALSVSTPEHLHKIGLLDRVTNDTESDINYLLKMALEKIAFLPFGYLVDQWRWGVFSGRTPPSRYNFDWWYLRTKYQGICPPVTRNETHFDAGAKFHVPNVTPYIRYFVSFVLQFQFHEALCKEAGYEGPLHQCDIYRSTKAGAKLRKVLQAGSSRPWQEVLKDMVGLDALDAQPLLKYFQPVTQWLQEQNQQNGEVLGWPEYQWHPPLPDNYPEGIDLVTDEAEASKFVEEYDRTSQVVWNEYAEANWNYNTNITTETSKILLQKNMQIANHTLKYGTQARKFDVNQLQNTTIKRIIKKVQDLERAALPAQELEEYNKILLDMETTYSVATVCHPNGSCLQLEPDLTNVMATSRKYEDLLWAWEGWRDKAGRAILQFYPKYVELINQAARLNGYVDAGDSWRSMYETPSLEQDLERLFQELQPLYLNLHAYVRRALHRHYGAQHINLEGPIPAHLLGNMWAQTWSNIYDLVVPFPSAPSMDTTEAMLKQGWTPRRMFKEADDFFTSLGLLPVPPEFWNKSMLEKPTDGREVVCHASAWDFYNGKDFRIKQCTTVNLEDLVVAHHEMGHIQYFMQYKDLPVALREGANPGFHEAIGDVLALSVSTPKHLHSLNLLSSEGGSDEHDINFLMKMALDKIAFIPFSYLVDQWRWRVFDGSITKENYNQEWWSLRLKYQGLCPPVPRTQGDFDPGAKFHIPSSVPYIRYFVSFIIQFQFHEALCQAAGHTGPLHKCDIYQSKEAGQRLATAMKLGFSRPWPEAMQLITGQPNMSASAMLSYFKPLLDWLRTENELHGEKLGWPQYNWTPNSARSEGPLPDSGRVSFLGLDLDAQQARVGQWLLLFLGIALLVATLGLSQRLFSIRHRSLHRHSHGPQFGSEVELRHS

[3] = Solubility of the compound in PBS buffer at pH 7.4 after 24 hrs by LC-MS/MS analysis; assay type: physicochemical
[4] = biological target: T1, Endothelin-converting enzyme 1 (Homo sapiens, UniProt P42892); test: Inhibition of ECE-1 in human NCO cells using Mca-Arg-Pro-Pro-GlyPhe-Ser-Ala-DpaOH as substrate after 45 mins by fluorescence assay; assay type: cell-based
T1 sequence (P42892 whole entry): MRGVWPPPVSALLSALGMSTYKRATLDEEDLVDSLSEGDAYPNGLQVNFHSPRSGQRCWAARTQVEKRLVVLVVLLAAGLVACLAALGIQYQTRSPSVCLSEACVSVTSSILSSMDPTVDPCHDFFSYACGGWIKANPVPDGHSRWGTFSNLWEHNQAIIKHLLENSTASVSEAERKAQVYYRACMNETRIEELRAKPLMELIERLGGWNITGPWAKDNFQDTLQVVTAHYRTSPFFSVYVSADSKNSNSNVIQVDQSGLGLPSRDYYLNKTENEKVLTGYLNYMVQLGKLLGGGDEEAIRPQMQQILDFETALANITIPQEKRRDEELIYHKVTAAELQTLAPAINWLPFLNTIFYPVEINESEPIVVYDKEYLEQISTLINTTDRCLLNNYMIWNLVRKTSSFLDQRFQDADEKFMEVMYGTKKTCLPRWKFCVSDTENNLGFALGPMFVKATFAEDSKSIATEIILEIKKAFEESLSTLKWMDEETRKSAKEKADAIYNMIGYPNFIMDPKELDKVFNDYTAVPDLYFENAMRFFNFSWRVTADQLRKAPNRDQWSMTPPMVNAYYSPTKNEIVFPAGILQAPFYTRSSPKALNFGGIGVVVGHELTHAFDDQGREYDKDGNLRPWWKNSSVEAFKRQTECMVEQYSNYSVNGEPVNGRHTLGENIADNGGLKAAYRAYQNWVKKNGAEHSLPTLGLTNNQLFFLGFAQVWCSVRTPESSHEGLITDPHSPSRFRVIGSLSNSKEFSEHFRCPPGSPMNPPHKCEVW

[5] = 1-octanol-PBS distribution coefficient, Log D of the compound at pH 7.4 after 2 hrs by LC-MS analysis; assay type: physicochemical
[6] = Stability of the compound assessed as GSH adduct formation by LC-MS analysis; assay type: ADME

Neprilysin, sequence (P08473 whole entry): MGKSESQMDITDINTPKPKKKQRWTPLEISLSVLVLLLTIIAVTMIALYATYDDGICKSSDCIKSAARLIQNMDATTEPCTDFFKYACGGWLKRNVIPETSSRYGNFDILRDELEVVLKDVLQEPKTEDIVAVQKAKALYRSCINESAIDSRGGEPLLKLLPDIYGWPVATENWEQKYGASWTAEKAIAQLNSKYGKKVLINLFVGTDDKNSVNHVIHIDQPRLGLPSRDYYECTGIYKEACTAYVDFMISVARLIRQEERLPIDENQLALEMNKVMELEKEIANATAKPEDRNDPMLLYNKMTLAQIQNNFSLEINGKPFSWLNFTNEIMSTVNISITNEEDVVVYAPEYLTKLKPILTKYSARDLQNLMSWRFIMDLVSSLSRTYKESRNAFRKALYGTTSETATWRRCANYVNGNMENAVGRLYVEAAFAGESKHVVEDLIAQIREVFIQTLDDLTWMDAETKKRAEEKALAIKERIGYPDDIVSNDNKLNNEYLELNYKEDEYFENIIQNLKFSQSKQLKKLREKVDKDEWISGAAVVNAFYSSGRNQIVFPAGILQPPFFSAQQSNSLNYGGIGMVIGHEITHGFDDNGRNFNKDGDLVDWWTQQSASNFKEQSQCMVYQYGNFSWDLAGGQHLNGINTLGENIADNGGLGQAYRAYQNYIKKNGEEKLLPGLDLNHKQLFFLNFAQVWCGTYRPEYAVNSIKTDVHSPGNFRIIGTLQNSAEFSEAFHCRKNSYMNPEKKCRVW

Row | SMILES | IC50 (Neprilysin) [µM] | half-life at 10 µM [1] [h] | IC50 [2] [µM] | solubility at 24 h [3] [µM] | IC50 [4] [µM] | logD at 2 h [5] | Stability [6]
1 | COC(=O)[C@H](CC(=O)N[C@H](CO)C(=O)O)CC(C)C | > 1000 |  |  |  |  |  | 
2 | COC(=O)[C@H](CC(C)C)NC(=O)N[C@@H](CO)C(=O)O | > 1000 |  |  |  |  |  | 
3 | COC(=O)[C@H](CC(=O)N[C@@H](CO)C(=O)O)CC(C)C | 79.4 | 0.1 |  | 160 (≈ 44 µg/mL) |  |  | 
4 | COC(=O)[C@@H](CC(=O)N[C@@H](CO)C(=O)O)CC(C)C | > 1000 |  |  |  |  |  | 
5 | COC(=O)C(CC(C)C)C(=O)N[C@H](CO)C(=O)O (mixture of isomers) | > 1000 |  |  |  |  |  | 
6 | COC(=O)[C@@H](CC(=O)N[C@H](CO)C(=O)O)CC(C)C | > 1000 |  |  |  |  |  | 
7 | COC(=O)[C@H](CC(C)C)NC(=O)N[C@H](CO)C(=O)O (single isomer, unassigned) | > 1000 |  |  |  |  |  | 
8 | CC(C)C[C@H](CC(=O)N[C@@H](CO)C(=O)O)C(=O)O | > 1000 | > 24 | > 31.6 | > 200 | > 31.6 | -3.8 | 

The next compounds have a lower IC50 (Neprilysin) than those just listed; values first:

Row | IC50 (Neprilysin) [µM] | half-life at 10 µM [1] [h] | IC50 [2] [µM] | solubility at 24 h [3] [µM] | IC50 [4] [µM] | logD at 2 h [5] | Stability [6] | SMILES
9 | 0.794 | > 24 | > 31.6 | > 200 | > 31.6 | -3.4 |  | CC(C)C[C@@H](CC(=O)N[C@@H](CO)C(=O)O)C(=O)O
10 | 50.1 |  |  |  |  |  |  | COC(=O)C(CC(C)C)C(=O)N[C@@H](CO)C(=O)O (mixture of isomers)
11 | 2.51 |  |  |  |  |  | Unstable | CC(C)C[C@H]1CC(=O)N([C@@H](CO)C(=O)O)C1=O
12 | 6.31 | > 24 | > 31.6 | > 200 | > 31.6 | -3.8 |  | CC(C)C[C@H](CC(=O)O)C(=O)N[C@@H](CO)C(=O)O
13 | 0.0631 | > 24 | > 31.6 | > 200 | > 31.6 | -3.7 | Stable | CC(C)C[C@@H](CC(=O)O)C(=O)N[C@@H](CO)C(=O)O
